Experimental data reported in ChEMBL document CHEMBL1134109, “Biological evaluation of hepatitis C virus helicase inhibitors” (Bioorg Med Chem Lett, 2001).

These molecules were tested against NS3 (Hepatitis C virus) (UniProt A3EZJ3) (assay: Inhibitory activity against hepatitis C virus helicase at 25 ug/mL). Details: Hepacivirus hominis.
Chain of NS3 (Hepatitis C virus) (A3EZJ3 as listed by the source): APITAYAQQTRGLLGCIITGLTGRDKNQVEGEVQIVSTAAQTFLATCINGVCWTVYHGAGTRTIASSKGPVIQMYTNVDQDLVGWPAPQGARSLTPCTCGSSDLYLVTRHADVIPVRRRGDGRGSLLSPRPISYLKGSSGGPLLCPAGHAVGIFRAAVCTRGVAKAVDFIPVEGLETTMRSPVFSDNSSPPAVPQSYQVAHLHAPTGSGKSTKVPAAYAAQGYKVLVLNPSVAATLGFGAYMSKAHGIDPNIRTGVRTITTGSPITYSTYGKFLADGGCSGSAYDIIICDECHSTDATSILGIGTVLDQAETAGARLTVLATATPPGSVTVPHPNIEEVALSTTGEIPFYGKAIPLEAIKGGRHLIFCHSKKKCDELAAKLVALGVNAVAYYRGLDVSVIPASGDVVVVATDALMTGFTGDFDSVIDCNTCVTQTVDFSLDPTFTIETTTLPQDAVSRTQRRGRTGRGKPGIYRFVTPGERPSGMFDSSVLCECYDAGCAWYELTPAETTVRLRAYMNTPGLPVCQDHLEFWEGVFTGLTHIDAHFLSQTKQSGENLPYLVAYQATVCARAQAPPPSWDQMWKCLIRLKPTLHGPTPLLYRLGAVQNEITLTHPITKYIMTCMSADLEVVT

Compound | inhibition
O=C(/C=C/C(=O)Nc1ccc(-c2nc3ccccc3[nH]2)cc1)Nc1ccc(-c2nc3ccccc3[nH]2)cc1 | 75%
O=C(CCCCC(=O)Nc1ccc(-c2nc3ccccc3[nH]2)cc1)Nc1ccc(-c2nc3ccccc3[nH]2)cc1 | 75%
O=C(CCCCCCC(=O)Nc1ccc(-c2nc3ccccc3[nH]2)cc1)Nc1ccc(-c2nc3ccccc3[nH]2)cc1 | 75%
O=C(CCCCC(=O)Nc1nc2ccccc2[nH]1)Nc1nc2ccccc2[nH]1 | 6%
O=C(NCCCCCCNC(=O)Nc1ccc(-c2nc3ccccc3[nH]2)cc1)Nc1ccc(-c2nc3ccccc3[nH]2)cc1 | 28%
O=C(CCCCCCCC(=O)Nc1nc2ccccc2[nH]1)Nc1nc2ccccc2[nH]1 | 6%

The next lines start with the values.

inhibition | Compound
6% | O=C(CCC(=O)Nc1nc2ccccc2[nH]1)Nc1nc2ccccc2[nH]1
6% | O=C(CCCCCCC(=O)Nc1nc2ccccc2[nH]1)Nc1nc2ccccc2[nH]1
20% | O=C(NCCCCNC(=O)Nc1ccc(-c2nc3ccccc3[nH]2)cc1)Nc1ccc(-c2nc3ccccc3[nH]2)cc1
75% | O=C(Nc1ccc(-c2nc3ccccc3[nH]2)cc1)c1ccc(C(=O)Nc2ccc(-c3nc4ccccc4[nH]3)cc2)cc1
14% | Cc1ccc2nc(-c3ccc(NC(=O)CCC(=O)Nc4ccc(-c5nc6ccc(C)cc6s5)cc4)cc3)sc2c1
10% | O=C(CCCCC(=O)Nc1nccs1)Nc1nccs1
